Laboratory results published in patent publication US20130156728A1, “COMPOSITION FOR NEUROLOGICAL OR AUTOIMMUNE DISEASES” (National Institutes of Health (NIH), U.S. Dept. of Health …, priority 2010, published 2013).

What was measured:
[1] = system: humans with type 1 diabetes; conditions: injections; cited from earlier work
chronic MPTP model = experiment: Vaccination in chronic MPTP model (striatal DA and DAT); type: in vivo, C57BL/6 mice
[2] = system: mouse models of Alzheimer's disease; conditions: without adjuvant; cited from earlier work
mice = experiment: Characterization of subacute MPTP model (striatal dopamine, splenocyte counts); type: in vivo, mouse
Description: To establish a subacute MPTP model, we tested administration of 10 mg/kg/day and 20 mg/kg/day MPTP for consecutive 5 days.
Data are represented as mean±SEM.

Question: For “GAD65: isoform of glutamic acid decarboxylase, 65 kDa”, which “preservation of some insulin production” value [1] is on record?
Answer: 30 months

Question: Which “protection of striatal dopamine (DA) and dopamine transporter (DAT)” value (chronic MPTP model) does the source give for “glatiramer acetate [Copaxone (without adjuvant)]” here?
Answer: no protective effect

Question: And the “effect in mouse models of Alzheimer's disease” value [2]?
Answer: beneficial

Question: Which results are given for `CN1CC=C(c2ccccc2)CC1` [MPTP, 1-Methyl-4-Phenyl-1,2,3,6-Tetrahydro-Pyridine]?
Answer: effect on striatal dopamine levels (mice; 10 mg/kg/day MPTP for 5 days, four days after the last treatment): no obvious effect; decrease of striatal dopamine level compared to PBS treated mice (mice; 20 mg/kg/day MPTP for 5 days, four days after the last treatment): 70%; effect on splenocyte counts (immunotoxicity) (mice; subacute MPTP, 10 and 20 mg/kg/day for 5 days): did not affect
